Columns and labels:
Assay in all cases: Holoreceptor transactivation assay
Format in all cases: cell-based
RXRα = biological target: T1, RXRα (Homo sapiens, UniProt P19793); conditions: relative to all trans retinoic acid; read-out: Transactivation Assay Efficacy (% of RA activity) RXRα
T1 construct: expressed in transfected cells; host or cells: CV1 cells
T1 sequence (P19793 1-462): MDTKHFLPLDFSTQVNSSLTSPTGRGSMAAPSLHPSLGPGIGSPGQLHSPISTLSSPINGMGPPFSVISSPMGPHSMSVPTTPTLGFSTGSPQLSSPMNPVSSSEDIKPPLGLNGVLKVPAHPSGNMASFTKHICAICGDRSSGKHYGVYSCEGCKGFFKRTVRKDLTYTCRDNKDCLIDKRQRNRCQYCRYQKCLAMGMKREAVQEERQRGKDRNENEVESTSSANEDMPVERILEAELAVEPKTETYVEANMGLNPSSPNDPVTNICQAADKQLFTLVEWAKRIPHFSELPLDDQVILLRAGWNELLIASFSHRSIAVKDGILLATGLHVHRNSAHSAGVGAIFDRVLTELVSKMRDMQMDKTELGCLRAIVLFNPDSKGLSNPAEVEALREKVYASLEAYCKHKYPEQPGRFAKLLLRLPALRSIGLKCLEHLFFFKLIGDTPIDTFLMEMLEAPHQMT
Source text: (§1) A holoreceptor transactivation assay and a ligand binding assay which measure the antagonist/agonist like activity of the compounds of the invention, or their ability to bind to the several retinoid receptor subtypes, respectively, are described in published PCT Application No. WO93/11755 (particularly on pages 30-33 and 37-41) published on Jun. 24, 1993, the specification of which is also incorporated herein by reference. A description of the holoreceptor transactivation assay is also provided below.
(§2) CV1 cells (5,000 cells/well) were transfected with an RAR reporter plasmid MTV-TREp-LUC (50 ng) along with one of the RAR expression vectors (10 ng) in an automated 96-well format by the calcium phosphate procedure of Heyman et al. Cell 68: 397-406. For RXR-α and RXR-γ transactivation assays, an RXR-responsive reporter plasmid CRBPII-tk-LUC (50 ng) along with the appropriate RXR expression vectors (10 ng) was used substantially as described by Heyman et al. above, and Allegretto et al. J. Biol. Chem. 268: 26625-26633. For RXR-β transactivation assays, an RXR-responsive reporter plasmid CPRE-tk-LUC ([…]) along with RXR-β expression vector ([…]) was used as described in above. These reporters contain DRI elements from human CRBPII and certain DRI elements from promotor, respectively (see Mangelsdorf et al. The Retinoids: Biology Chemistry and Medicine, pp. 319-349, Raven Press Ltd., New York and Heyman et al., cited above). A β-galactosidase (50 ng) expression vector was used as an internal control in the transfections to normalize for variations in transfection efficiency. The cells were transfected in triplicate for 6 hours, followed by incubation with retinoids for 36 hours, and the extracts were assayed for luciferase and […] activities. The detailed experimental procedure for holoreceptor transactivations has been described in Heyman et al. above, and Allegretto et al. cited above. The results obtained in this assay are expressed in EC50 numbers, as they are also in the chimeric receptor transactivation assay. The Heyman et al. Cell 68: 397-406, Allegretto et al. J. Biol. Chem. 268: 26625-26633, and Mangelsdorf et al. The Retinoids: Biology, Chemistry, and Medicine, pp. 319-349, Raven Press Ltd., New York, are expressly incorporated herein by reference. The results of ligand binding assay are expressed in Kd numbers. (See Cheng et al. Biochemical Pharmacology 22: 3099-3108, expressly incorporated herein by reference.)

RXRβ = conditions: relative to all trans retinoic acid
Source text: as §1, §2

RXRγ = biological target: T2, RXRγ (Mus musculus, UniProt P28705); conditions: relative to all trans retinoic acid; read-out: Transactivation Assay Efficacy (% of RA activity) RXRγ
T2 construct: expressed in transfected cells; host or cells: CV1 cells
T2 sequence (P28705 1-463): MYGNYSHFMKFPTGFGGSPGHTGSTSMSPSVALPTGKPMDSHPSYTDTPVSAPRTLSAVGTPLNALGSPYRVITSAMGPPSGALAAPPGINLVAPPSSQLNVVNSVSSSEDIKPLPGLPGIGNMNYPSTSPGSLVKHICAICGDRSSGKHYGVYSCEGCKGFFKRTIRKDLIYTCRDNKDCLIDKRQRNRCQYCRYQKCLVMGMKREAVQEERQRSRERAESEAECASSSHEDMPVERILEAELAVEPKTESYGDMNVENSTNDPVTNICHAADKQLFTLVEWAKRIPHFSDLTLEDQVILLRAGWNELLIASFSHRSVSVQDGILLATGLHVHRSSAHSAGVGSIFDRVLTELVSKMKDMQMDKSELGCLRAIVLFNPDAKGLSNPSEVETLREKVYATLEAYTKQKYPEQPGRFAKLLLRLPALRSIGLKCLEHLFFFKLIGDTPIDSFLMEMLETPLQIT
Source text: as §1, §2

RARβ = biological target: T3, RARβ (Homo sapiens, UniProt P10826); parameters: expressed in transfected cells; host or cells: CV1 cells; conditions: relative to all trans retinoic acid; read-out: Transactivation Assay Efficacy (% of RA activity) RARβ
T3 sequence (P10826 1-448 isoform P10826-2): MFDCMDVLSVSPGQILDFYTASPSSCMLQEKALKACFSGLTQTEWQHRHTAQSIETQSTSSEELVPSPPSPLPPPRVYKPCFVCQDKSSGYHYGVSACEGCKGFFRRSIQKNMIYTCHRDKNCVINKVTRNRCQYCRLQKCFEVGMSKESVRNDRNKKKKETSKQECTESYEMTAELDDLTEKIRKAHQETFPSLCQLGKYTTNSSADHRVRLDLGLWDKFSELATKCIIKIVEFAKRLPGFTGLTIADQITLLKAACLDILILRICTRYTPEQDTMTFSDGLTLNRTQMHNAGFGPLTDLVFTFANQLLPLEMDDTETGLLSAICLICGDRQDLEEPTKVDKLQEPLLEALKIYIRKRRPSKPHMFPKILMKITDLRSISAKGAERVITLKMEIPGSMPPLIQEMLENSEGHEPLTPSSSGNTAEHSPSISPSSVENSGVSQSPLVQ
Source text: as §1, §2
A compound should not cause significant activation of a reporter gene through a given receptor subtype (RAR-α, RAR-β or RAR-γ) in the holoreceptor transactivation assay, in order to qualify as an RAR antagonist with utility in the present invention.

SMILES | Emax (RXRα) | Transactivation Assay Efficacy (% of RA activity) RXRβ (RXRβ) | Emax (RXRγ) | Emax (RARβ)
Cc1ccc(C2=CCC(C)(C)c3ccc(C#Cc4ccc(C(=O)O)cc4)cc32)cn1 [Compound 18, 4-[(5,6-Dihydro-5,5-dimethyl-8-(2-methyl-5-pyridyl)-2-naphthalenyl)ethynyl]benzoic acid] | 2% | 10.00 % of RA activity | 1% | 1%
CC1(C)CC=C(c2ccccn2)c2cc(C#Cc3ccc(C(=O)O)cc3)ccc21 [Compound 19, 4-[(5,6-Dihydro-5,5-dimethyl-8-(2-pyridyl)-2-naphthalenyl)ethynyl]benzoic acid] | 0% | 9.0 % of RA activity | 4% | 5%
Cc1cccc(C2=CCC(C)(C)c3ccc(C#Cc4ccc(C(=O)O)cc4)cc32)c1 [Compound 20, 4-[(5,6-Dihydro-5,5-dimethyl-8-(3-methylphenyl)-2-naphthalenyl)ethynyl]benzoic acid] | 4% | 0.00 % of RA activity | 3% | 4%
CCc1ccc(C2=CCC(C)(C)c3ccc(C#Cc4ccc(C(=O)O)cc4)cc32)cc1 [Compound 21, 4-[(5,6-Dihydro-5,5-dimethyl-8-(4-ethylphenyl)-2-naphthalenyl)ethynyl]benzoic acid] | 3% | 0.00 % of RA activity | 3% | 2%
COc1ccc(C2=CCC(C)(C)c3ccc(C#Cc4ccc(C(=O)O)cc4)cc32)cc1 [Compound 22, 4-[(5,6-Dihydro-5,5-dimethyl-8-(4-methoxyphenyl)-2-naphthalenyl)ethynyl]benzoic acid] | 1% | 0.00 % of RA activity | 2% | 0%
CC1(C)CC=C(c2ccc(C(F)(F)F)cc2)c2cc(C#Cc3ccc(C(=O)O)cc3)ccc21 [Compound 23, 4-[(5,6-Dihydro-5,5-dimethyl-8-(4-trifluoromethylphenyl)-2-naphthalenyl)ethynyl]benzoic acid] | 1% | 0.00 % of RA activity | 4% | 6%
Cc1cc(C)cc(C2=CCC(C)(C)c3ccc(C#Cc4ccc(C(=O)O)cc4)cc32)c1 [Compound 24, 4-[(5 6-Dihydro-5,5-dimethyl-8-(3,5-dimethylphenyl)-2-naphthalenyl)ethynyl]benzoic acid] | 1% | 0.00 % of RA activity | 3% | 7%
CC1(C)CC=C(c2ccc(Cl)cc2)c2cc(C#Cc3ccc(C(=O)O)cc3)ccc21 [Compound 25, 4-[(5,6-Dihydro-5,5-dimethyl-8-(4-chlorophenyl)-2-naphthalenyl)ethynyl]benzoic acid] | 5% | 0.00 % of RA activity | 3% | 3%
CC1(C)CC=C(c2cccnc2)c2cc(C#Cc3ccc(C(=O)O)cc3)ccc21 [Compound 26, 4-[(5,6-Dihydro-5,5-dimethyl-8-(3-pyridyl)-2-naphthalenyl)ethynyl]benzoic acid] | 2% | 0.00 % of RA activity | 3% | 6%
Cc1ccccc1C1=CCC(C)(C)c2ccc(C#Cc3ccc(C(=O)O)cc3)cc21 [Compound 27, 4-[(5,6-Dihydro-5,5-dimethyl-8-(2-methylphenyl)-2-naphthalenyl)ethynyl]benzoic acid] | 2% | 0.00 % of RA activity | 4% | 14%
CC1(C)CC=C(c2cccc(O)c2)c2cc(C#Cc3ccc(C(=O)O)cc3)ccc21 [Compound 28, 4-[(5,6-Dihydro5,5-dimethyl-8-(3-hydroxyphenyl)-2-naphthalenyl)ethynyl]benzoic acid] | 2% | 0.00 % of RA activity | 3% | 10%
CC1(C)CC=C(c2ccc(O)cc2)c2cc(C#Cc3ccc(C(=O)O)cc3)ccc21 [Compound 29, 4-[(5,6-Dihydro-5,5-dimethyl-8-(4-hydroxyphenyl)-2-naphthalenyl)ethynyl]benzoic acid] | 0% | 6.00 % of RA activity | 2% | 6%
Cc1cnc(C2=CCC(C)(C)c3ccc(C#Cc4ccc(C(=O)O)cc4)cc32)s1 [Compound 30, 4-[(5,6-Dihydro-5,5-dimethyl-8-(5-methylthiazol-2-yl)-2-naphthalenyl)ethynyl]benzoic acid] | 0% | 9.00 % of RA activity | 3% | 5%
Cc1csc(C2=CCC(C)(C)c3ccc(C#Cc4ccc(C(=O)O)cc4)cc32)n1 [Compound 31, 4-[(5,6-Dihydro-5,5-dimethyl-8-(4-methylthiazol-2-yl)-2-naphthalenyl)ethynyl]benzoic acid] | 1% | 8.00 % of RA activity | 6% | 14%
Cc1nc(C2=CCC(C)(C)c3ccc(C#Cc4ccc(C(=O)O)cc4)cc32)sc1C [Compound 32] | 1% | 0.00 % of RA activity | 2% | 2%
Cc1ccc(C2=CCC(C)(C)c3ccc(C#Cc4ccc(C(=O)O)cc4)cc32)s1 [Compound 34, 4-[(5,6-Dihydro-5,5-dimethyl-8-(5-methyl-2-thienyl)-2-naphthalenyl)ethynyl]benzoic acid] | 1% | 0.00 % of RA activity | 3% | 5%

Reference: US6469028B1, “Synthesis and use of retinoid compounds having negative hormone and/or anatgonist activities” (Allergan, Inc., priority 1995, dated 2002)
